In brackets after ≈: the same amount, converted by molar mass.
Key:
Mus musculus [1] = assay: Antiobesity activity in C57Bl6J mouse assessed as inhibition of corn oil-induced triacylglycerol excursion at 5 mg/kg, po administered at 30 mins post corn-oil challenge measured after 2 hrs by oral lipid tolerance test relative to control; format: functional
Mus musculus [2] = assay: Antiobesity activity in C57Bl6J mouse assessed as inhibition of corn oil-induced triacylglycerol excursion at 150 mg/kg, po administered at 30 mins post corn-oil challenge measured after 2 hrs by oral lipid tolerance test relative to control; format: functional
[3] = Tmax in mouse at 100 mg/kg, po; format: ADME, organism-based; parameters: dose 100 mg/kg, route oral; settings: in vivo
[4] = target: T1, Acyl-CoA wax alcohol acyltransferase 2 (Homo sapiens, UniProt Q6E213); assay: Inhibition of human recombinant AWAT2 expressed in insect cell membrane using cetyl alcohol and [14C]oleoyl coenzyme A as substrate after 10 to 15 mins by liquid scintillation counting
T1 sequence (Q6E213 whole entry): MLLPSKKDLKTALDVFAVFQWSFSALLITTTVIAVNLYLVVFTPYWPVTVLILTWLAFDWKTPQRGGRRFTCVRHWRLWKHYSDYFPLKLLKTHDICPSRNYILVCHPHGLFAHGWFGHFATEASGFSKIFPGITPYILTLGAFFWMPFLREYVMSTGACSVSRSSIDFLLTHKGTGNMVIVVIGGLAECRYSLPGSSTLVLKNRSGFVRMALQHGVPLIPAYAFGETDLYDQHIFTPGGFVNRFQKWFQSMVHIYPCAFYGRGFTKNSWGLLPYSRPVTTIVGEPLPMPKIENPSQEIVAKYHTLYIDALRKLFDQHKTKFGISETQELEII

[5] = target: T2, Acyl-CoA wax alcohol acyltransferase 1 (Homo sapiens, UniProt Q58HT5); assay: Inhibition of human recombinant AWAT1 expressed in insect cell membrane using palmitoleyl alcohol and [14C]stearoyl coenzyme A as substrate after 10 to 15 mins by liquid scintillation counting
T2 sequence (Q58HT5 whole entry): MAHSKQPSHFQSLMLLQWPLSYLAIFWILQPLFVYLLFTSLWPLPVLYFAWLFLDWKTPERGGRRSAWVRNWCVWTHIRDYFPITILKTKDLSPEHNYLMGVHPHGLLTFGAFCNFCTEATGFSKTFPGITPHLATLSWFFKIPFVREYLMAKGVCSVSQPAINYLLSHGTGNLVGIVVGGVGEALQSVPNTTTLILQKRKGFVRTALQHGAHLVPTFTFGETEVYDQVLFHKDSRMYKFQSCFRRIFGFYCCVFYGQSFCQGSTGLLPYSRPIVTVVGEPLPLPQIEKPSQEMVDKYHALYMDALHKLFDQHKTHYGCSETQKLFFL

[6] = target: T3, Diacylglycerol O-acyltransferase 2 (Homo sapiens, UniProt Q96PD7); assay: Inhibition of human recombinant DGAT2 using dioleoyl-sn-glycerol and [14C]oleoyl coenzyme A as substrate after 30 mins by liquid scintillation counting
T3 sequence (Q96PD7 whole entry): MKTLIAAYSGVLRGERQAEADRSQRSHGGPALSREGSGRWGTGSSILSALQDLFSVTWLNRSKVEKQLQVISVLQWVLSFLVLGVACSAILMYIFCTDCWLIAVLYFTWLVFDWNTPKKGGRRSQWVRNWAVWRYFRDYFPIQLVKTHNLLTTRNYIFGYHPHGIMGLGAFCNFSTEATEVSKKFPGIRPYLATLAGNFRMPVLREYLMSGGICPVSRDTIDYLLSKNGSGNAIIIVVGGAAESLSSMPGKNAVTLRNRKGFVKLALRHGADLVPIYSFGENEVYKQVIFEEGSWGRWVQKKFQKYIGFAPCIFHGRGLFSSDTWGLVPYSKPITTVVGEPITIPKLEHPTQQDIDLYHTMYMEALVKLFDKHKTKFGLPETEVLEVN

[7] = target: T4, Diacylglycerol O-acyltransferase 1 (Homo sapiens, UniProt O75907); assay: Inhibition of human recombinant DGAT1 expressed in Sf9 cells using dioleoyl-sn-glycerol and [14C]oleoyl coenzyme A as substrate after 30 mins by liquid scintillation counting
T4 sequence (O75907 whole entry): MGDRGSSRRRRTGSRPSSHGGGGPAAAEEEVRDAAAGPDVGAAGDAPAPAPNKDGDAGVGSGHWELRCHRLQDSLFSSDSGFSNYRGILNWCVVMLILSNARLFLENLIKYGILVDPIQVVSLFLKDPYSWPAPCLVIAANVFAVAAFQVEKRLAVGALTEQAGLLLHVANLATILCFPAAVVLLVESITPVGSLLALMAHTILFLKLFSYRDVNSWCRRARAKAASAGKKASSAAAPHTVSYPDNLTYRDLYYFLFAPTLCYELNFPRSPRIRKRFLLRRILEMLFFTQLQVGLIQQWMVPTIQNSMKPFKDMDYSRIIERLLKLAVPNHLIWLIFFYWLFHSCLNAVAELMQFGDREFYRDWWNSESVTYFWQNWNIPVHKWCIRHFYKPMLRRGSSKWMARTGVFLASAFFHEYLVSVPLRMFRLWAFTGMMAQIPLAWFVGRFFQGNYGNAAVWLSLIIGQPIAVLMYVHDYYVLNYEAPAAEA

[8] = Time dependent inhibition of CYP450 (unknown origin); format: ADME; settings: human
[9] = Inhibition of CYP450 (unknown origin); format: ADME; settings: human
[10] = Apparent permeability from apical side to basolateral side of human Caco2 cells at 10 umol/l measured up to 120 mins by LCMS analysis; format: ADME, cell-based; settings: Caco-2
[11] = Dissociation constant, pKa of the compound; format: physicochemical
[12] = Intrinsic clearance in human liver microsomes as 1 umol/l measured up to 30 mins by LC-MS analysis; format: ADME, Microsome; settings: read-out: CLH
[13] = Lipophilicity, log D of the compound at pH 7.4; format: physicochemical; settings: buffer
Liver microsomes = assay: Ratio of compound-glutathione adduct formation to clozapine-glutathione adduct formation in human liver microsomes at 10 umol/l after 30 mins by glutathione trapping method; format: ADME, Microsome; settings: 0.5 h, 10 µM
[14] = Solubility of the compound; format: physicochemical

Tmax [3] [min]	IC50 [4] [µM]	IC50 [5] [µM]	IC50 [6] [µM]	IC50 [7] [µM]	inhibition (INH) [8]	inhibition (INH) [9]	Papp A→B at 2 h, 10 µM [10] [×10⁻⁶ cm/s]	pKa [11]	microsomal CLint at 1 µM [12] [µL/min/mg]	logD [13]	Ratio (Liver microsomes)	solubility [14] [µM]	SMILES	inhibition in vivo at 5 mg/kg (Mus musculus [1]) [%]	inhibition in vivo at 150 mg/kg (Mus musculus [2]) [%]
30	> 100	> 100	> 10	> 10	Not Active	Not Active	3.3	7.3	< 5	–	–	–	CC[C@]1(C)NC(=O)c2cc(S(=O)(=O)Nc3ccc(F)cc3F)ccc2NC1=O	116	68
–	–	–	–	–	–	–	–	–	–	1.6	–	–	CC1(C)NC(=O)c2cc(S(=O)(=O)Nc3ccccc3)ccc2NC1=O	–	–
–	–	–	–	–	–	–	–	–	–	3	–	–	O=C1NC2(CCCC2)C(=O)Nc2ccc(S(=O)(=O)Nc3ccc(Cl)cc3)cc21	–	–
–	–	–	–	–	–	–	–	–	–	2.2	–	–	CCC1(CC)NC(=O)c2cc(S(=O)(=O)Nc3ccc(F)cc3F)ccc2NC1=O	–	–
–	> 100	> 100	> 10	> 10	Not Active	Not Active	16	8	40	–	1.8	–	CCC1(CC)CNc2ccc(S(=O)(=O)Nc3ccc(F)cc3F)cc2C(=O)N1	–	–
–	> 100	> 100	> 10	> 10	Not Active	Not Active	3.1	6.9	< 5	–	–	–	CC[C@]1(C)NC(=O)c2cc(S(=O)(=O)Nc3ccc(C(F)(F)F)cc3)ccc2NC1=O	–	–
–	> 100	> 100	> 10	> 10	Not Active	Not Active	1.1	7.9	2.8	–	–	–	CC[C@]1(C)NC(=O)c2cc(S(=O)(=O)Nc3ccc(OC(F)F)cc3)ccc2NC1=O	–	–
–	–	–	–	–	–	–	–	–	–	2.3	–	–	CCC1(C)NC(=O)c2cc(S(=O)(=O)Nc3ccc(OC(F)F)cc3)ccc2NC1=O (racemic)	–	–
–	–	–	–	–	–	–	–	–	–	1.8	–	–	CCC1(C)NC(=O)c2cc(S(=O)(=O)Nc3ccc(F)cc3F)ccc2NC1=O (racemic)	–	–
–	–	–	–	–	–	–	–	–	–	1.6	–	–	CCC1NC(=O)c2cc(S(=O)(=O)Nc3ccccc3)ccc2NC1=O (racemic)	–	–
–	–	–	–	–	–	–	–	–	–	2.2	–	–	CCCC1(C)NC(=O)c2cc(S(=O)(=O)Nc3ccc(F)cc3F)ccc2NC1=O (racemic)	–	–
–	> 100	> 100	> 10	> 10	Not Active	Not Active	36	–	221	–	0	–	CCC1(C)NC(=O)c2cc(S(=O)(=O)N(C)c3ccccc3)ccc2NC1=O (racemic)	–	–
–	> 100	> 100	> 10	> 10	Not Active	Not Active	20	7.9	7	–	–	–	CCC1(C)NC(=O)c2cc(S(=O)(=O)Nc3ccc(Cl)cc3)ccc2N(C)C1=O (racemic)	–	–
–	> 100	> 100	> 10	> 10	Not Active	Not Active	8.1	7.1	9	–	–	–	CCC1(C)C(=O)Nc2ccc(S(=O)(=O)Nc3ccc(F)cc3F)cc2C(=O)N1C (racemic)	–	–
–	> 100	> 100	> 10	> 10	Not Active	Not Active	2.4	8.7	< 5	1.9	–	–	CCC1(C)NC(=O)c2cc(S(=O)(=O)Nc3ccccc3)ccc2NC1=O (racemic)	–	–
–	–	–	–	–	–	–	–	–	–	1.8	–	–	CCC1(C)NC(=O)c2cc(S(=O)(=O)NCc3ccccc3)ccc2NC1=O (racemic)	–	–
–	–	–	–	–	–	–	–	–	–	2	–	–	CCC1(C)NC(=O)c2cc(S(=O)(=O)NC3CCCCC3)ccc2NC1=O (racemic)	–	–
–	> 100	> 100	> 10	> 10	Not Active	Not Active	5.5	8.1	3	2.9	0.4	2 (≈ 0.816 µg/mL)	CCC1(C)NC(=O)c2cc(S(=O)(=O)Nc3ccc(Cl)cc3)ccc2NC1=O (racemic)	–	–
–	> 100	> 100	> 10	> 10	Not Active	Not Active	6.4	7.2	< 5	1.9	0.1	–	CCC1(C)NC(=O)c2cc(S(=O)(=O)Nc3ccccc3Cl)ccc2NC1=O (racemic)	–	–
–	–	–	–	–	–	–	–	–	–	3.1	–	–	CCC1(C)NC(=O)c2cc(S(=O)(=O)Nc3ccc(C(F)(F)F)cc3)ccc2NC1=O (racemic)	–	–
–	> 100	> 100	> 10	> 10	Not Active	Not Active	1.5	5.6	16	1.8	–	–	CCC1(C)NC(=O)c2cc(S(=O)(=O)Nc3ccc(OC)cc3)ccc2NC1=O (racemic)	–	–

From ChEMBL document CHEMBL2375263, “Identification and design of a novel series of MGAT2 inhibitors” (Bioorg Med Chem Lett, 2013)
